In patent publication US20060069132A1, “Azolecarboxamide herbicides” (priority 2004, published 2006):

Tests used:
[1] = system: small flower umbrella sedge; assay: Test B flooded paddy test; format: in vivo, Cyperus difformis; settings: 1000 g ai/ha, scale 0 to 100 (0 no effect, 100 complete control)
How it was run: (§1)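 Treated at 2-leaf (paddy) or 1–4-leaf, 2–18 cm (postemergence); greenhouse 13–15 d; visual score vs control, 0 none to 100 complete control; dash = not tested.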

barnyardgrass [2] = assay: Test B pre-/postemergence herbicide test; format: in vivo, Echinochloa crus-galli; settings: for Barnyardgrass plant response rating (0 to 100 scale) / Plant response rating, Barnyardgrass: 0 = no effect, 100 = complete control, preemergence; for Plant response rating, Barnyardgrass / Barnyardgrass plant response rating: visual rating; for Barnyardgrass plant response rating: postemergence, scale 0 (no effect) to 100 (complete control)
How it was run: (§2)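 Herbicidal effect was judged by eye on a 0–100 scale after plants stood 13 to 15 days in the greenhouse following pre- or postemergence treatment with surfactant-containing formulations.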

corn = assay: Test B pre-/postemergence herbicide test; format: in vivo, Zea mays; settings: for Corn plant response rating (0 to 100 scale) / Plant response rating, Corn: 0 = no effect, 100 = complete control, preemergence; for Corn plant response rating: postemergence
How it was run: (§3)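 Flooded paddy rice and barnyardgrass were treated at the 2-leaf stage; upland plantings received compound either on sown seed or on 1- to 4-leaf seedlings. All were kept 13–15 days in a greenhouse and scored visually, 0–100, relative to untreated plants.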

pigweed = assay: Test B pre-/postemergence herbicide test; format: in vivo, Amaranthus retroflexus; settings: for Pigweed plant response rating: postemergence
How it was run: as §3

barnyardgrass [3] = assay: Test B flooded paddy test; format: in vivo, Echinochloa crus-galli; settings: 1000 g ai/ha, scale 0 to 100 (0 no effect, 100 complete control)
How it was run: as §1

Surinam grass = assay: Test B pre-/postemergence herbicide test; format: in vivo, Urochloa decumbens; settings: for Surinam Grass plant response rating (0 to 100 scale) / Plant response rating, Surinam Grass: 0 = no effect, 100 = complete control, preemergence; for Surinam Grass plant response rating: postemergence
How it was run: as §3

rice [4] = assay: Test B flooded paddy test; format: in vivo, Oryza sativa; settings: 1000 g ai/ha, scale 0 to 100 (0 no effect, 100 complete control)
How it was run: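 After treating 2-leaf paddy plants or 2–18 cm postemergence plants (1 to 4 leaves) with formulated chemical, researchers kept them in a greenhouse for 13–15 days. Effects were judged visually versus controls: 0 indicates none, 100 total control.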

morningglory = assay: Test B pre-/postemergence herbicide test; format: in vivo, Ipomoea coccinea; settings: for Morningglory plant response rating (0 to 100 scale) / Plant response rating, Morningglory: 0 = no effect, 100 = complete control, preemergence; for Morningglory plant response rating: postemergence
How it was run: as §2

cocklebur = assay: Test B pre-/postemergence herbicide test; format: in vivo, Xanthium strumarium; settings: for Cocklebur plant response rating (0 to 100 scale) / Plant response rating, Cocklebur: 0 = no effect, 100 = complete control, preemergence; for Plant response rating, Cocklebur / Cocklebur plant response rating: visual rating; for Cocklebur plant response rating: postemergence, scale 0 (no effect) to 100 (complete control)
How it was run: as §2

ducksalad = assay: Test B flooded paddy test; format: in vivo, Heteranthera limosa; settings: 1000 g ai/ha, scale 0 to 100 (0 no effect, 100 complete control)
How it was run: as §1

lambsquarters = assay: Test B pre-/postemergence herbicide test; format: in vivo, Chenopodium album; settings: for Lambsquarters plant response rating: postemergence
How it was run: as §3

wild oat = assay: Test B postemergence herbicide test; format: in vivo, Avena fatua; settings: postemergence
How it was run: (§4)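 Plants grow to 1- to 4-leaf stage (2–18 cm) for postemergence spraying, or to 2-leaf stage for the paddy test. Formulated compound is applied. Greenhouse holding lasts 13–15 days. Response is scored visually relative to controls, 0 no effect to 100 complete control; a dash means no result.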

wheat = assay: Test B postemergence herbicide test; format: in vivo, Triticum aestivum; design: key to Wheat plant response rating: 0 = no effect, 100 = complete control; settings: postemergence
How it was run: as §4

rice [5] = assay: Test B pre-/postemergence herbicide test; format: in vivo, Oryza sativa; settings: 0 = no effect, 100 = complete control, preemergence; for Rice plant response rating (0 to 100 scale): 125 g ai/ha; for Plant response rating, Rice: 500 g ai/ha, visual rating
How it was run: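 Evaluation is visual, comparing treated with control plants on a scale where 0 means no effect and 100 means full control. Treatments were preemergence, or postemergence on seedlings 2–18 cm tall, and held 13–15 days in the greenhouse.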

large crabgrass = assay: Test B pre-/postemergence herbicide test; format: in vivo, Digitaria sanguinalis; settings: for Crabgrass, Large plant response rating (0 to 100 scale) / Plant response rating, Crabgrass, Large: 0 = no effect, 100 = complete control, preemergence; for Crabgrass, Large plant response rating: postemergence
How it was run: as §3

giant foxtail = assay: Test B pre-/postemergence herbicide test; format: in vivo, Setaria faberi; settings: for Foxtail, Giant plant response rating (0 to 100 scale) / Plant response rating, Foxtail, Giant: 0 = no effect, 100 = complete control, preemergence; for Foxtail, Giant plant response rating: postemergence
How it was run: as §3

blackgrass = assay: Test B postemergence herbicide test; format: in vivo, Alopecurus myosuroides; settings: postemergence, visual rating, scale 0 (no effect) to 100 (complete control)
How it was run: as §1

velvetleaf = assay: Test B pre-/postemergence herbicide test; format: in vivo, Abutilon theophrasti; settings: for Velvetleaf plant response rating (0 to 100 scale) / Plant response rating, Velvetleaf: 0 = no effect, 100 = complete control, preemergence; for Velvetleaf plant response rating: postemergence
How it was run: as §3

[6] = 125 g ai/ha, visual rating, scale 0 (no effect) to 100 (complete control)
[7] = 500 g ai/ha, visual rating, scale 0 (no effect) to 100 (complete control)
[8] = 125 g ai/ha, 0 = no effect, 100 = complete control, preemergence
[9] = 500 g ai/ha, visual rating, 0 = no effect, 100 = complete control, preemergence
[10] = 500 g ai/ha, scale 0 to 100, 0 is no effect, 100 is complete control

## C=CCNC(=O)c1ccc(F)c(NC(=O)c2sc(CC)nc2C(C)(C)C)c1 [Compound 237]
[1]
  Sedge, Umbrella plant response rating: 40
Barnyardgrass [2]; 125 g ai/ha
  Barnyardgrass plant response rating (0 to 100 scale): 20
Barnyardgrass [2]; 500 g ai/ha
  Plant response rating, Barnyardgrass: 50
corn; 125 g ai/ha
  Corn plant response rating (0 to 100 scale): 0
corn; 500 g ai/ha, visual rating
  Plant response rating, Corn: 20
corn; [6]
  Corn plant response rating: 20
corn; [7]
  Corn plant response rating: 40
pigweed; [8]
  Pigweed plant response rating (0 to 100 scale): 20
pigweed; [9]
  Plant response rating, Pigweed: 70
pigweed; [6]
  Pigweed plant response rating: 30
pigweed; [7]
  Pigweed plant response rating: 60
Barnyardgrass [3]
  Barnyardgrass plant response rating: 60
Surinam grass; 125 g ai/ha
  Surinam Grass plant response rating (0 to 100 scale): 10
Surinam grass; 500 g ai/ha, visual rating
  Plant response rating, Surinam Grass: 30
Surinam grass; [6]
  Surinam Grass plant response rating: 20
Surinam grass; [7]
  Surinam Grass plant response rating: 20
Rice [4]
  Rice plant response rating: 50
morningglory; 125 g ai/ha
  Morningglory plant response rating (0 to 100 scale): 0
morningglory; 500 g ai/ha, visual rating
  Plant response rating, Morningglory: 20
morningglory; [6]
  Morningglory plant response rating: 20
morningglory; [7]
  Morningglory plant response rating: 60
cocklebur; 125 g ai/ha
  Cocklebur plant response rating (0 to 100 scale): 0
  Cocklebur plant response rating: 10
cocklebur; 500 g ai/ha
  Plant response rating, Cocklebur: 0
  Cocklebur plant response rating: 40
ducksalad
  Ducksalad plant response rating: 80
lambsquarters; [8]
  Lambsquarters plant response rating (0 to 100 scale): 70
lambsquarters; [9]
  Plant response rating, Lambsquarters: 90
lambsquarters; [6]
  Lambsquarters plant response rating: 60
lambsquarters; [7]
  Lambsquarters plant response rating: 70
Wild oat; [6]
  Oat, Wild plant response rating: 0
Wild oat; [7]
  Oat, Wild plant response rating: 20
wheat; [6]
  Wheat plant response rating: 10
wheat; [7]
  Wheat plant response rating: 20
Rice [5]
  Rice plant response rating (0 to 100 scale): 0
  Plant response rating, Rice: 30
Large crabgrass; 125 g ai/ha
  Crabgrass, Large plant response rating (0 to 100 scale): 30
Large crabgrass; 500 g ai/ha, visual rating
  Plant response rating, Crabgrass, Large: 90
Large crabgrass; [6]
  Crabgrass, Large plant response rating: 10
Large crabgrass; [7]
  Crabgrass, Large plant response rating: 20
Giant foxtail; 125 g ai/ha
  Foxtail, Giant plant response rating (0 to 100 scale): 0
Giant foxtail; 500 g ai/ha, visual rating
  Plant response rating, Foxtail, Giant: 40
Giant foxtail; [6]
  Foxtail, Giant plant response rating: 10
Giant foxtail; [7]
  Foxtail, Giant plant response rating: 20
blackgrass; 125 g ai/ha
  Blackgrass plant response rating: 0
blackgrass; 500 g ai/ha
  Blackgrass plant response rating: 10
velvetleaf; 125 g ai/ha
  Velvetleaf plant response rating (0 to 100 scale): 30
velvetleaf; 500 g ai/ha, visual rating
  Plant response rating, Velvetleaf: 60
velvetleaf; [6]
  Velvetleaf plant response rating: 30
velvetleaf; [7]
  Velvetleaf plant response rating: 50

## CCOC(=O)c1cc(NC(=O)c2cc(C(C)(C)C)nn2CC)c(F)cc1F [Compound 250]
[1]
  Sedge, Umbrella plant response rating: 70
Barnyardgrass [2]; 125 g ai/ha
  Barnyardgrass plant response rating (0 to 100 scale): 0
  Barnyardgrass plant response rating: 20
Barnyardgrass [2]; 500 g ai/ha
  Plant response rating, Barnyardgrass: 10
  Barnyardgrass plant response rating: 20
corn; 125 g ai/ha
  Corn plant response rating (0 to 100 scale): 0
corn; 500 g ai/ha, visual rating
  Plant response rating, Corn: 0
corn; [6]
  Corn plant response rating: 20
corn; [10]
  Corn plant response rating: 30
pigweed; [8]
  Pigweed plant response rating (0 to 100 scale): 0
pigweed; [6]
  Pigweed plant response rating: 30
pigweed; [10]
  Pigweed plant response rating: 70
Barnyardgrass [3]
  Barnyardgrass plant response rating: 0
Surinam grass; 125 g ai/ha
  Surinam Grass plant response rating (0 to 100 scale): 10
Surinam grass; 500 g ai/ha, visual rating
  Plant response rating, Surinam Grass: 30
Surinam grass; [6]
  Surinam Grass plant response rating: 10
Surinam grass; [10]
  Surinam Grass plant response rating: 20
Rice [4]
  Rice plant response rating: 50
morningglory; 125 g ai/ha
  Morningglory plant response rating (0 to 100 scale): 0
morningglory; 500 g ai/ha, visual rating
  Plant response rating, Morningglory: 0
morningglory; [6]
  Morningglory plant response rating: 20
morningglory; [10]
  Morningglory plant response rating: 30
cocklebur; 125 g ai/ha
  Cocklebur plant response rating (0 to 100 scale): 0
  Cocklebur plant response rating: 30
cocklebur; 500 g ai/ha
  Plant response rating, Cocklebur: 0
  Cocklebur plant response rating: 40
ducksalad
  Ducksalad plant response rating: 40
lambsquarters; [8]
  Lambsquarters plant response rating (0 to 100 scale): 0
lambsquarters; [6]
  Lambsquarters plant response rating: 0
lambsquarters; [10]
  Lambsquarters plant response rating: 40
Wild oat; [6]
  Oat, Wild plant response rating: 20
Wild oat; [10]
  Oat, Wild plant response rating: 40
wheat; [6]
  Wheat plant response rating: 20
wheat; [10]
  Wheat plant response rating: 40
Rice [5]
  Rice plant response rating (0 to 100 scale): 0
  Plant response rating, Rice: 10
Large crabgrass; 125 g ai/ha
  Crabgrass, Large plant response rating (0 to 100 scale): 0
Large crabgrass; 500 g ai/ha, visual rating
  Plant response rating, Crabgrass, Large: 10
Large crabgrass; [6]
  Crabgrass, Large plant response rating: 20
Large crabgrass; [10]
  Crabgrass, Large plant response rating: 20
Giant foxtail; 125 g ai/ha
  Foxtail, Giant plant response rating (0 to 100 scale): 0
Giant foxtail; 500 g ai/ha, visual rating
  Plant response rating, Foxtail, Giant: 10
Giant foxtail; [6]
  Foxtail, Giant plant response rating: 20
Giant foxtail; [10]
  Foxtail, Giant plant response rating: 30
blackgrass; 125 g ai/ha
  Blackgrass plant response rating: 10
blackgrass; 500 g ai/ha
  Blackgrass plant response rating: 40
velvetleaf; 125 g ai/ha
  Velvetleaf plant response rating (0 to 100 scale): 0
velvetleaf; 500 g ai/ha, visual rating
  Plant response rating, Velvetleaf: 20
velvetleaf; [6]
  Velvetleaf plant response rating: 20
velvetleaf; [10]
  Velvetleaf plant response rating: 30
